In patent US9896436B2, “Histone demethylase inhibitors” (Celgene Quanticel Research, Inc., priority 2014, dated 2018):

Assays:
Type in all cases: biochemical
Conditions in all cases: Table 5
JMJD3 = JMJD3 (Homo sapiens, UniProt O15054); assay: JMJD3 in vitro enzyme inhibition assay (AlphaScreen)
Text: (§1) This assay determines the ability of a test compound to inhibit Jarid1B, JMJD2C and JMJD3 demethylase activity. Baculovirus expressed Jarid1B (GenBank Accession #NM-006618, AA 2-751) was purchased from BPS Bioscience (Cat #50121) or custom made by MolecularThroughput. Baculovirus expressed JMJD2C (GenBank Accession #BC143571, AA 2-372) was purchased from BPS Bioscience (Cat#50105). Baculovirus expressed JMJD3 (GenBank Accession #NM-001080424, AA1043-end) was purchased from BPS Bioscience (Cat#50115).
The ability of test compounds to inhibit the activity of JMJD3 was determined in 384-well plate format under the following reaction conditions: 1 nM JMJD3, 250 nM H3K27me3-biotin labeled peptide (Anaspec cat #64367), 1 μM alpha-ketoglutaric acid in assay buffer of 50 mM HEPES, pH7.3, 0.005% Brij35, 0.5 mM TCEP, 0.2 mg/ml BSA, 50 μM sodium L-ascorbate, 5 μM ammonium iron(II) sulfate. Reaction product is determined quantitatively by AlphaScreen detection after the addition of detection reagents anti-H3K27me1 antibody, 5 μg/ml AlphaScreen® Streptavidin-coated Donor beads, and 5 μg/ml AlphaScreen® Protein A Acceptor beads in 50 mM HEPES, pH7.3, 10 mM NaCl, 0.005% Brij35, 10 mM EDTA, 2 mg/ml BSA. […]

JMJD2C = JMJD2C (Homo sapiens (Human), UniProt Q9H3R0); assay: JMJD2C in vitro enzyme inhibition assay (TR-FRET)
Sequence of JMJD2C (Q9H3R0 2-372): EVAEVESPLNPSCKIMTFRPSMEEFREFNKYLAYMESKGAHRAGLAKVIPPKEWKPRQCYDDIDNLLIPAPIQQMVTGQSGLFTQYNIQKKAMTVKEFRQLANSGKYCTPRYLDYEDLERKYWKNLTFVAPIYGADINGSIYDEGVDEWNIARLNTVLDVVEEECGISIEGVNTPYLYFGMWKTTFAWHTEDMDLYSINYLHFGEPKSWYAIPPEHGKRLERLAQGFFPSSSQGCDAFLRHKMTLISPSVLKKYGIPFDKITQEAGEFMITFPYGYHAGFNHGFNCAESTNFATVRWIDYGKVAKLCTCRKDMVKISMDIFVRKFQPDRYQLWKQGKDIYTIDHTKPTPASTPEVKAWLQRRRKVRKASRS
Text: as §1
The ability of test compounds to inhibit the activity of JMJD2C was determined in 384-well plate format under the following reaction conditions: 0.3 nM JMJD2C, 300 nM H3K9me3-biotin labeled peptide (Anaspec cat #64360), 2 μM alpha-ketoglutaric acid in assay buffer of 50 mM HEPES, pH7.3, 0.005% Brij35, 0.5 mM TCEP, 0.2 mg/ml BSA, 50 μM sodium L-ascorbate, and 2 μM ammonium iron(II) sulfate. Reaction product was determined quantitatively by TR-FRET after the addition of detection reagent Phycolink Streptavidin-allophycocyanin (Prozyme) and Europium-anti-di-methylated histone H3 lysine 9 (H3K9me2) antibody (PerkinElmer) in the presence of 5 mM EDTA in LANCE detection buffer (PerkinElmer) at a final concentration of 50 nM and 1 nM, respectively. […]

Jarid1B = Jarid1B (Homo sapiens (Human), UniProt Q9UGL1); assay: Jarid1B in vitro enzyme inhibition assay (TR-FRET)
Sequence of Jarid1B (Q9UGL1 2-751): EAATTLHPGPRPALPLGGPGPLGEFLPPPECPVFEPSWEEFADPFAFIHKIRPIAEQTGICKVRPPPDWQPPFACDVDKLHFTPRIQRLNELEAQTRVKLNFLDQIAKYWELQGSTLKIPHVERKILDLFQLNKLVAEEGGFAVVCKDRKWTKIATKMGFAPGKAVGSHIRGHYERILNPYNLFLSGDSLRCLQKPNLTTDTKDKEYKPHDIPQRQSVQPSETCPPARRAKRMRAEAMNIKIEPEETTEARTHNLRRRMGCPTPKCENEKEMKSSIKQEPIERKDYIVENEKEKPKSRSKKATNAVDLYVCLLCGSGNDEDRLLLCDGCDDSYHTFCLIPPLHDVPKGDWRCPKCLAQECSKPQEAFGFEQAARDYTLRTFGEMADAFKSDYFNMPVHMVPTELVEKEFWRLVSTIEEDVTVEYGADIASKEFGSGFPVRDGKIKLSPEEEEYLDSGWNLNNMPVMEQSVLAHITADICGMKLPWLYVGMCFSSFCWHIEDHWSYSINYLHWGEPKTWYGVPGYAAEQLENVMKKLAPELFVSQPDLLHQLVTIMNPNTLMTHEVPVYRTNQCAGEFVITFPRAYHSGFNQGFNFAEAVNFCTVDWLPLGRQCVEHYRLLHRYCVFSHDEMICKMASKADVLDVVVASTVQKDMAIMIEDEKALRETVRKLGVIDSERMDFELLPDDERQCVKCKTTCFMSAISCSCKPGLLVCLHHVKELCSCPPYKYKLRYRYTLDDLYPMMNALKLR
Text: as §1
The ability of test compounds to inhibit the activity of Jarid1B was determined in 384-well plate format under the following reaction conditions: 0.8 nM Jarid1B, 300 nM H3K4me3-biotin labeled peptide (Anaspec cat #64357), 2 μM alpha-ketoglutaric acid in assay buffer of 50 mM HEPES, pH7.3, 0.005% Brij35, 0.5 mM TCEP, 0.2 mg/ml BSA, 50 μM sodium L-ascorbate, and 2 μM ammonium iron(II) sulfate. Reaction product was determined quantitatively by TR-FRET after the addition of detection reagent Phycolink Streptavidin-allophycocyanin (Prozyme) and Europium-anti-mono- or di-methylated histone H3 lysine 4 (H3K4me1-2) antibody (PerkinElmer) in the presence of 5 mM EDTA in LANCE detection buffer (PerkinElmer) at a final concentration of 25 nM and 1 nM, respectively. […]

“2-{1-[(6-fluoro-1,2,3,4- tetrahydronaphthalen-1-yl)methyl]-1H- imidazol-4-yl}-4-[5-(trifluoromethyl)-1H 1,2,3-triazol-4-yl]pyridine [Example 100]” gave an IC50 (JMJD3) of over 10 µM, an IC50 (JMJD2C) of over 10 µM and an IC50 (Jarid1B) of at most 0.1 µM.
